Results reported in patent US20150113683A1, “METHODS FOR PLANT TRANSFORMATION USING SPECTINOMYCIN SELECTION” (Monsanto Technology LLC, priority 2007, published 2015).
Where “and” joins values, the source holds several entries; their conditions need not be identical. Identical values can stand only once.

Legend:
soybean explants [1] = assay: Explants on different levels of spectinomycin: GUS-expressing buds and shoots; assay type: cell-based, soybean (Glycine max); details: for % explants with GUS+ shoots/buds / # Explants with GUS+ shoots/buds: 2 mg/L TDZ in co-culture; for # Explants with GUS+ shoots/buds: 25 explants assayed
soybean explants [2] = assay: Transformation frequency using spectinomycin selection at different levels; assay type: cell-based, soybean (Glycine max)
dry soybean explants [3] = assay: Transformation frequency of dry soybean explants using glyphosate or spectinomycin as selective agent; assay type: cell-based; details: for % TF: dry soybean explants
dry soybean explants [4] = assay: Dry soybean embryos, spectinomycin, liquid culture medium: TF with hydration conditions and liquid overlay timing; assay type: cell-based; details: spectinomycin 150 ppm
Description: In these studies, explants were initially hydrated and eventually regenerated on WPM solid media with liquid overlay or WPM liquid medium as above. […] In liquid overlay treatment both solid and liquid culture media were used; liquid medium was dispensed over the top of explants as they were lying on solid medium at a specified time during tissue culture as identified in the Table 30. This was done as a type of media refreshment and avoids the need for transferring explants from old media to new media. In the control treatments, explants were surface plated on a solid WPM medium (Table 2).

[5] = tested on: dry excised soybean explants; assay: Dry soybean embryos, spectinomycin, whole regenerated explant with pre-culturing step: TF and event quality; assay type: cell-based; details: for % quality events: 1-2 copies of GUS and aadA by Invader assay; for # Events produced / TF % / qTF %: spectinomycin 150 ppm; for Estimated mTF %: marker-free TF, events without the marker gene
[6] = tested on: 3 months stored dry soybean explants; assay: Stored dry soybean explants, spectinomycin, pre-culture: TF; assay type: cell-based; details: pMON107379
Description: TDZ and lipoic acid were both added to the inoculum and to the co-culture media (INO). The construct, pMON107379, was a conventional 2T vector comprising oriRi and aadA gene, and co-culture was done for 5 days.

[7] = Total over all Spec levels of the experiment (1102: 25-250 mg/L; 1119: 50-250 mg/L)
[8] = first study, spectinomycin selection 25-250 mg/L

CN[C@@H]1[C@H](O)[C@H](NC)[C@H]2O[C@@]3(O)C(=O)C[C@@H](C)O[C@H]3O[C@@H]2[C@H]1O [Spectinomycin, spectinomycin]
% explants with GUS+ shoots/buds (soybean explants [1]; spectinomycin level 25 (mg/L)): 52%
# Explants with GUS+ shoots/buds (soybean explants [1]; spectinomycin level 25 (mg/L)): 13
% explants with GUS+ shoots/buds (soybean explants [1]; spectinomycin level 50): 72%
# Explants with GUS+ shoots/buds (soybean explants [1]; spectinomycin level 50): 18
% explants with GUS+ shoots/buds (soybean explants [1]; spectinomycin level 100): 76%
# Explants with GUS+ shoots/buds (soybean explants [1]; spectinomycin level 100): 19
% explants with GUS+ shoots/buds (soybean explants [1]; spectinomycin level 150): 72%
# Explants with GUS+ shoots/buds (soybean explants [1]; spectinomycin level 150): 18
% explants with GUS+ shoots/buds (soybean explants [1]; spectinomycin level 200): 80%
# Explants with GUS+ shoots/buds (soybean explants [1]; spectinomycin level 200): 20
% explants with GUS+ shoots/buds (soybean explants [1]; spectinomycin level 250): 80%
# Explants with GUS+ shoots/buds (soybean explants [1]; spectinomycin level 250): 20
explants that developed GUS-positive buds and shoots (soybean explants [1]; within two weeks on selective medium, about 22 DAI, TDZ-treated explants): Up to 80%
% TF (transformation frequency) (soybean explants [2]; Spec level 25 mg/L): 19%
Plants tested for transformation, Total (soybean explants [2]; Spec level 25 mg/L): 19
Shoots harvested, % SF (shoot frequency) (soybean explants [2]; Spec level 25 mg/L): 46%
Shoots harvested, Total (soybean explants [2]; Spec level 25 mg/L): 46
% TF (transformation frequency) (soybean explants [2]; Spec level 50 mg/L): 14.7% and 22.2%
Plants tested for transformation, Total (soybean explants [2]; Spec level 50 mg/L): 88 and 48
Shoots harvested, % SF (shoot frequency) (soybean explants [2]; Spec level 50 mg/L): 24.8% and 46.8%
Shoots harvested, Total (soybean explants [2]; Spec level 50 mg/L): 149 and 101
% TF (transformation frequency) (soybean explants [2]; Spec level 100 mg/L): 15.7% and 12.6%
Shoots harvested, % SF (shoot frequency) (soybean explants [2]; Spec level 100 mg/L): 20.5% and 20.6%
% TF (transformation frequency) (soybean explants [2]; Spec level 150 mg/L): 26.1% and 18.3%
Shoots harvested, % SF (shoot frequency) (soybean explants [2]; Spec level 150 mg/L): 35.1% and 20.8%
% TF (transformation frequency) (soybean explants [2]; Spec level 200 mg/L): 14.4% and 12.5%
Shoots harvested, % SF (shoot frequency) (soybean explants [2]; Spec level 200 mg/L): 28.2% and 15.2%
Shoots harvested, Total (soybean explants [2]; Spec level 200 mg/L): 53 and 91
% TF (transformation frequency) (soybean explants [2]; Spec level 250 mg/L): 19.5% and 16.3%
Shoots harvested, % SF (shoot frequency) (soybean explants [2]; Spec level 250 mg/L): 27.5% and 18.0%
Shoots harvested, Total (soybean explants [2]; Spec level 250 mg/L): 55 and 108
% TF (transformation frequency) (soybean explants [2]; [7]): 18.6% and 15.5%
Shoots harvested, % SF (shoot frequency) (soybean explants [2]; [7]): 33.3% and 19.9%
Shoots harvested, Total (soybean explants [2]; [7]): 330 and 596
average transformation frequency (soybean explants [2]; [8]): 18.6%
transformation frequency, range (soybean explants [2]; [8]): 12.6-26.1%
plants later shown to be transformed (soybean explants [2]; of the first 32 plants tested to confirm transformation, one escape): 31
transformation frequencies (dry soybean explants [3]; 150 ppm spectinomycin, dry excised soybean embryos, 1 hr hydration in INO, 4 days co-culture, two different studies): 25.05% and 19.27%
% TF (dry soybean explants [3]; Spectinomycin 25 ppm in regeneration medium): 4.66%
% TF (dry soybean explants [3]; Spectinomycin 50 ppm in regeneration medium): 4.24%
% TF (dry soybean explants [3]; Spectinomycin 100 ppm in regeneration medium): 6.34%
% TF (dry soybean explants [3]; Spectinomycin 200 ppm in regeneration medium): 5.99%
TF % (mean of 3 repeats) (dry soybean explants [4]; Treatment 1-Control, hydration medium INO, incubation with Agrobacteria 0 minutes, surface plated on solid WPM): 3.10%
TF % (mean of 3 repeats) (dry soybean explants [4]; Treatment 2, hydration medium BGM w/o cefotaxime, incubation with Agrobacteria 0 minutes): 14.67%
TF % (mean of repeats) (dry soybean explants [4]; Treatment 2, no liquid overlay, Oasis Wedge transfer for regeneration): 14.67%
TF % (mean of 3 repeats) (dry soybean explants [4]; Treatment 3, hydration medium BGM w/o cefotaxime, incubation with Agrobacteria 15 minutes): 15.45%
TF % (mean of repeats) (dry soybean explants [4]; Treatment 3, liquid overlay 3 weeks post inoculation, 5 mLs on solid WPM, Oasis Wedge transfer): 15.45%
TF % (mean of 3 repeats) (dry soybean explants [4]; Treatment 4, hydration medium BGM w/o cefotaxime, incubation with Agrobacteria 30 minutes): 18.50%
TF % (mean of repeats) (dry soybean explants [4]; Treatment 4, liquid overlay 3 weeks post inoculation, 10 mLs on solid WPM, Oasis Wedge transfer): 18.50%
TF % (mean of 3 repeats) (dry soybean explants [4]; Treatment 5, hydration medium INO, incubation with Agrobacteria 0 minutes): 13.98%
TF % (mean of repeats) (dry soybean explants [4]; Treatment 5, liquid overlay 4 weeks post inoculation, 5 mLs on solid WPM, Oasis Wedge transfer): 13.98%
TF % (mean of 3 repeats) (dry soybean explants [4]; Treatment 6, hydration medium INO, incubation with Agrobacteria 15 minutes): 9.64%
TF % (mean of repeats) (dry soybean explants [4]; Treatment 6, liquid overlay 4 weeks post inoculation, 10 mLs on solid WPM, Oasis Wedge transfer): 9.64%
TF % (mean of 3 repeats) (dry soybean explants [4]; Treatment 7, hydration medium INO, incubation with Agrobacteria 30 minutes): 13.79%
TF % (mean of repeats) (dry soybean explants [4]; Treatment Control-1, liquid overlay NA, overlay volume None, no Oasis Wedge transfer): 8.00%
% quality events ([5]; Dry Excised - 2T/OriRi, 14 events assayed): 28.6%
# Events produced ([5]; Dry Excised - 2T/OriRi, 161 explants): 15
Estimated mTF % ([5]; Dry Excised - 2T/OriRi): 0.45%
TF % ([5]; Dry Excised - 2T/OriRi): 9.32 +/− 7.38%
qTF % ([5]; Dry Excised - 2T/OriRi): 2.5%
% quality events ([5]; Dry Excised - 2T/OriV, 32 events assayed): 21.9%
# Events produced ([5]; Dry Excised - 2T/OriV, 260 explants): 34
Estimated mTF % ([5]; Dry Excised - 2T/OriV): 0.62%
TF % ([5]; Dry Excised - 2T/OriV): 13.1 +/− 0.17%
qTF % ([5]; Dry Excised - 2T/OriV): 2.7 +/− 0.23%
% quality events ([5]; Pre-cultured Dry - 2T/OriRi, 64 events assayed): 20.3%
# Events produced ([5]; Pre-cultured Dry - 2T/OriRi, 336 explants, pre-culture 5 days 23° C. dark in BGM): 66
Estimated mTF % ([5]; Pre-cultured Dry - 2T/OriRi): 0.7%
TF % ([5]; Pre-cultured Dry - 2T/OriRi, pre-culture 5 days 23° C. dark in BGM): 19.64 +/− 1.97%
qTF % ([5]; Pre-cultured Dry - 2T/OriRi): 3.9 +/− 1.22%
% quality events ([5]; Pre-cultured Dry - 2T/OriV, 311 events assayed): 24.4%
# Events produced ([5]; Pre-cultured Dry - 2T/OriV, 1641 explants, pre-culture 5 days 23° C. dark in BGM): 319
Estimated mTF % ([5]; Pre-cultured Dry - 2T/OriV): 1.1%
TF % ([5]; Pre-cultured Dry - 2T/OriV, pre-culture 5 days 23° C. dark in BGM): 19.4 +/− 5.42%
qTF % ([5]; Pre-cultured Dry - 2T/OriV): 4.6 +/− 1.35%
R0 plants ([6]; Fresh Dry Explants, no pre-culture step, 375 explants): 24
TF ([6]; Fresh Dry Explants, no pre-culture step): 6.40%
R0 plants ([6]; Fresh Dry Explants, pre-culture step 5 days 23° C. dark in BGM, 1008 explants): 112
TF ([6]; Fresh Dry Explants, pre-culture step 5 days 23° C. dark in BGM): 11.11%
R0 plants ([6]; Stored Dry Explants (3 months), no pre-culture step, 678 explants): 71
TF ([6]; Stored Dry Explants (3 months), no pre-culture step): 10.47%
R0 plants ([6]; Stored Dry Explants (3 months), pre-culture step 5 days 23° C. dark in BGM, 901 explants): 129
TF ([6]; Stored Dry Explants (3 months), pre-culture step 5 days 23° C. dark in BGM): 14.32%
R0 plants ([6]; Wet Excised explants, no pre-culture step, 263 explants): 75
TF ([6]; Wet Excised explants, no pre-culture step): 28.52%
